Laboratory results reported in ChEMBL document CHEMBL5465560, “Selectivity Literature for EUbOPEN Chemogenomic Library” (2024).

How the values were obtained:
[1] = target: Serine/threonine-protein kinase Nek4 (Homo sapiens) (UniProt P51957); assay: Selectivity interaction (KinomeScan (DiscoverX)) EUB0000607a NEK4; conditions: at 10 µM
[2] = target: T1, Tyrosine-protein kinase JAK3 (Homo sapiens) (UniProt P52333); assay: Selectivity interaction (KinomeScan (DiscoverX)) EUB0001049a JAK3; conditions: at 1 µM
T1 sequence (whole entry): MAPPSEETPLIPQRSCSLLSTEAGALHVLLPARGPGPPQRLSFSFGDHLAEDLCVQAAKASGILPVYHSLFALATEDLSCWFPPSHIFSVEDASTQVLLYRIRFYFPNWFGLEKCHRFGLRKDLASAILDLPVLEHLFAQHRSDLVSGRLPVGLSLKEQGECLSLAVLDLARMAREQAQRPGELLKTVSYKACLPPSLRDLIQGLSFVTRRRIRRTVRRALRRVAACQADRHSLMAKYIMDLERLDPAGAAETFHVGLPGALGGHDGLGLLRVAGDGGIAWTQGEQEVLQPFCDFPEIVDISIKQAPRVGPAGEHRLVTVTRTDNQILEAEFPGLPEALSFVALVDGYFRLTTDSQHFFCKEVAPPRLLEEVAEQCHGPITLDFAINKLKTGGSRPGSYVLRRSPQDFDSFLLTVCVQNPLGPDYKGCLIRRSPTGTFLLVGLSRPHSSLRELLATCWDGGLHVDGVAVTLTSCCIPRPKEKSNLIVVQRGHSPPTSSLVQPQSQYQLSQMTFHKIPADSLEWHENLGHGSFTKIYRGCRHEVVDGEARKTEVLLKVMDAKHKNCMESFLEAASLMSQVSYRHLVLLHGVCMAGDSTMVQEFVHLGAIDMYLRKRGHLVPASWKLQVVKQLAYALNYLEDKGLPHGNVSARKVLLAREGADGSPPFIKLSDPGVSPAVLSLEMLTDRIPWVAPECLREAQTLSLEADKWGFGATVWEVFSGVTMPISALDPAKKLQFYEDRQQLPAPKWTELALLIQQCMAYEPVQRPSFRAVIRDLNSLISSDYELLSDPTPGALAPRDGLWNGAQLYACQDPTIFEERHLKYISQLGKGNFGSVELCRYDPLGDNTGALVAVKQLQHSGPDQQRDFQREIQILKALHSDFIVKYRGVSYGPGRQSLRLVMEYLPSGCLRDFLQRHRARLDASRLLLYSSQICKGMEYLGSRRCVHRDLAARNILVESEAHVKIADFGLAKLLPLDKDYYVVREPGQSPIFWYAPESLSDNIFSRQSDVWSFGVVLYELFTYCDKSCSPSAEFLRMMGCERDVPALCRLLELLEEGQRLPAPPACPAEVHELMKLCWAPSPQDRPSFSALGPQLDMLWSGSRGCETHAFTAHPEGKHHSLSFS

[3] = target: T2, Cyclin-dependent kinase-like 5 (Homo sapiens) (UniProt O76039); assay: Selectivity interaction (KinomeScan (DiscoverX)) EUB0000655a CDKL5; conditions: at 10 µM
T2 sequence (whole entry): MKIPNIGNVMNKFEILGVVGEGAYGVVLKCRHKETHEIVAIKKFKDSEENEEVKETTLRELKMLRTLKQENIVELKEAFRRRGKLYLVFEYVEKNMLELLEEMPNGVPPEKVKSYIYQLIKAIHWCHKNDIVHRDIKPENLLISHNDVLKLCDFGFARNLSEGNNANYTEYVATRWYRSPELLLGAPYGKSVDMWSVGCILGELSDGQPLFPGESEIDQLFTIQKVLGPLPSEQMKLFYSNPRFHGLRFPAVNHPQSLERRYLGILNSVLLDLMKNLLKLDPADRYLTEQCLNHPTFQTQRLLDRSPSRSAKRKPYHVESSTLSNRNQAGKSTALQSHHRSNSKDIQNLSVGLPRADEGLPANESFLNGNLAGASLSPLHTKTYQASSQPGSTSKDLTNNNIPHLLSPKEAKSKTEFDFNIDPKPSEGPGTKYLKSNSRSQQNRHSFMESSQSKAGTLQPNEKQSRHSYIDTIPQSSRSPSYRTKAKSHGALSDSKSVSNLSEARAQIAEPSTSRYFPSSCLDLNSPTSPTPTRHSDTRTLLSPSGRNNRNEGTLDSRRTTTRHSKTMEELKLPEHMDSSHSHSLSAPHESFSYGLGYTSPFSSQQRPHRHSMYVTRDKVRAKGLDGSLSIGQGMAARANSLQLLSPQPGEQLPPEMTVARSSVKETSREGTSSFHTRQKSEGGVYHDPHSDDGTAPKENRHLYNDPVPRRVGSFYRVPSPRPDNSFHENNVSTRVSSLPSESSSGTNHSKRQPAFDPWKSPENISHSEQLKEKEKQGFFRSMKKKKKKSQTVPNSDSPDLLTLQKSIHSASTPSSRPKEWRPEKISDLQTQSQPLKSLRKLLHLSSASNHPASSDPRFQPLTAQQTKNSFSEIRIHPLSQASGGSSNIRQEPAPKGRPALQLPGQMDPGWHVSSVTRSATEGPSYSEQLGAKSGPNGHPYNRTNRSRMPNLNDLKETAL

[4] = target: T3, Interleukin-1 receptor-associated kinase 4 (Homo sapiens) (UniProt Q9NWZ3); assay: Selectivity interaction (KinomeScan (DiscoverX)) EUB0000655a IRAK4; conditions: at 10 µM
T3 sequence (whole entry): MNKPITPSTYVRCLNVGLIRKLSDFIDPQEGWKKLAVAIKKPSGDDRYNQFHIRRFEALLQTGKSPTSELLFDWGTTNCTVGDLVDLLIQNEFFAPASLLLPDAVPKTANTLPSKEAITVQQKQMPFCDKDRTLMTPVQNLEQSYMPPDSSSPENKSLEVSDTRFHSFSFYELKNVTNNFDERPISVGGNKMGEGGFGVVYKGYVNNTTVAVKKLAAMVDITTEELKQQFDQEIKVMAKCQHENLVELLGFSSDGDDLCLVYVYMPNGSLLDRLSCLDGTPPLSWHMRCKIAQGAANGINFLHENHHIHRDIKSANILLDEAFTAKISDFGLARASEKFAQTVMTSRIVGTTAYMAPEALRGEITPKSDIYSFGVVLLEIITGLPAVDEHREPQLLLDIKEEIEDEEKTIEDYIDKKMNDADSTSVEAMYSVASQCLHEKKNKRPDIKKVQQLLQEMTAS

Sequence of Serine/threonine-protein kinase Nek4 (Homo sapiens) (P51957 whole entry, looked up): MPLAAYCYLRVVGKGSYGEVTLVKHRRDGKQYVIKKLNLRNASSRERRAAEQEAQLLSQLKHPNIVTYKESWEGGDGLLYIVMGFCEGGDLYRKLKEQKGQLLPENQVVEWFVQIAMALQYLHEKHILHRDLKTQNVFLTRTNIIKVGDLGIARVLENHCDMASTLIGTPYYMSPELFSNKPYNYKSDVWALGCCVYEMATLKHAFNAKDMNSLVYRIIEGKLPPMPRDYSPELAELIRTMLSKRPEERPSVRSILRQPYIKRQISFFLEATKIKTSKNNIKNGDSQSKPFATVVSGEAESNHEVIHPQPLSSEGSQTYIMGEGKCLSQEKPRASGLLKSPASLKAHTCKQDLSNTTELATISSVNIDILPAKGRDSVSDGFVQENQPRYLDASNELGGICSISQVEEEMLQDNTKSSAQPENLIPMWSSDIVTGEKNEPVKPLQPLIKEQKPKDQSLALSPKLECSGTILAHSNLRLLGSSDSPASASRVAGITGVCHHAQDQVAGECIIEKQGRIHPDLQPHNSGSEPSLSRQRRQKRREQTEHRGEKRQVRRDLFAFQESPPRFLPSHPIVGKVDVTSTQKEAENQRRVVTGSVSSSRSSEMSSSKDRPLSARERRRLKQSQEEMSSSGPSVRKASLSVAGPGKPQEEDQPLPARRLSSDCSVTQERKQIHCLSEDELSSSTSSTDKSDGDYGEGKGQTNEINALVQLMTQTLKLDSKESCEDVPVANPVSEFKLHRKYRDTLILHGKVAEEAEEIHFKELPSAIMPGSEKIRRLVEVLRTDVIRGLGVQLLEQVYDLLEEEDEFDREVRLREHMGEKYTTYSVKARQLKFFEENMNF

**Q.** How did the % of control [1] turn out when `CNC(=O)Nc1ccc(-c2nc(N3CC4CCC(C3)O4)c3cnn(C4CCC5(CC4)OCCO5)c3n2)cc1` was run?
**A.** 82%

**Q.** How did the % of control [2] turn out when `COc1cc(Nc2nc(C)cc(-c3cnn4nc(OC)ccc34)n2)cc(C(F)(F)F)c1` was run?
**A.** 93%

**Q.** Which results are given for `CN(C)CCOc1ccc(-c2nc(-c3ccncc3)c(-c3ccc4c(c3)CC/C4=N\O)[nH]2)cc1`?
**A.** % of control [3]: 100%; % of control [4]: 91%
